Reference: patent US7229825B2, “Double-transfected cell line useful for the identification of transport inhibitors” (Deutches Krebsforschungszentrum Stiftung des Offentlichen …, priority 2001, dated 2007)
Read-outs that look alike come from different tables or passages of the source.

Key:
[1] = test system: human OATP8 and MRP2 (MDCK-MRP2/OATP8 cells); assay: Inhibition of transcellular [3H]BSP transport in MDCK-MRP2/OATP8 cells; type: cell-based; conditions: 1 μM [3H]BSP, 30 min, 37° C.
Method: (§1) For transport assays MDCKII cells were grown on Transwell membrane inserts (24 mm diameter, 0.4 μm pore size, Corning Costar) at confluency for 3 days and induced with 10 mM sodium butyrate for 24 h. Cells were first washed with transport buffer (142 mM NaCl, 5 mM KCl, 1 mM KH2PO4, 1.2 mM MgSO4, 1.5 mM CaCl2, 5 mM glucose, and 12.5 mM HEPES, pH 7.3), subsequently, ^3H-labeled substrates were added in transport buffer either to the apical compartments (1 ml) or to the basolateral compartments (1.5 ml). After the time periods indicated, the radioactivity in the opposite compartments was measured. The intracellular accumulation of the radioactivity was determined by lysing the cells with 2 ml 0.2% SDS in water and measuring the radioactivity in cell lysates.
(§2) For inhibition studies the inhibitors were added simultaneously with [^3H]BSP into the basolateral compartments, with the exception of 1-chloro-2,4-dinitrobenzene (CDNB). In this case, MDCKII cells grown on Transwell membrane inserts were pre-incubated with CDNB in transport puffer in both apical and basolateral compartments for 20 min at room temperature. The transcellular transport was then started by replacing the buffer in the basolateral compartments by fresh buffer containing CDNB and [^3H]BSP.

[2] = molecular target: T1, human OATP8 (MDCK-OATP8 cells) (Homo sapiens, UniProt Q9NPD5); assay: Inhibition of [3H]BSP accumulation and transport in MDCK-OATP8 cells; conditions: pre-incubation 20 min at room temperature, up to a concentration of 50 μM
T1 sequence (Q9NPD5 1-702): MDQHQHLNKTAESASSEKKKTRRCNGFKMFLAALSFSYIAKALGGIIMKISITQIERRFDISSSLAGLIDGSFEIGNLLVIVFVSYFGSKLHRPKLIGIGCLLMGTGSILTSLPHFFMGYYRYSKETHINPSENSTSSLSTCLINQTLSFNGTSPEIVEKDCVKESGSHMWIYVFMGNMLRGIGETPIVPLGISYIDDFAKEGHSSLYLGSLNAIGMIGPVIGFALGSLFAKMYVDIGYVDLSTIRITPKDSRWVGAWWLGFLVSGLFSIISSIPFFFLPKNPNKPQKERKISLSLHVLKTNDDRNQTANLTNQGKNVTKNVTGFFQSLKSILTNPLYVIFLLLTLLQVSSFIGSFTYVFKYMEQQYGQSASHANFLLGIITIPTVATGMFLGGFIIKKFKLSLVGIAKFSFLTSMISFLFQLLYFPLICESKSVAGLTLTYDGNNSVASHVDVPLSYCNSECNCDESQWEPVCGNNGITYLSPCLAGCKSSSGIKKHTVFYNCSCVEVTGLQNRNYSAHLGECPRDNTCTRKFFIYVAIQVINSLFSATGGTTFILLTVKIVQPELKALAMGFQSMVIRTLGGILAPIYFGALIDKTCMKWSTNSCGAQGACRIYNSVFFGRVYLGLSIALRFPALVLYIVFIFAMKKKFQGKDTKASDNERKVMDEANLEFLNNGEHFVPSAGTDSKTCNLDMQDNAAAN
Method: as §1, §2

[3] = test system: human OATP8 and MRP2 (MDCK-MRP2/OATP8 cells); assay: Transcellular transport of organic anions across MDCK-MRP2/OATP8 cells on Transwell membrane inserts; conditions: substrate in basolateral compartment, 37° C., apical compartment measured; MDCK-MRP2/OATP8 compared with MDCK-OATP8, MDCK-Co (and MDCK-MRP2) cells
Method: (§3) For transport assays MDCKII cells were grown on Transwell membrane inserts (24 mm diameter, 0.4 μm pore size, Corning Costar) at confluency for 3 days and induced with 10 mM sodium butyrate for 24 h. […] After the time periods indicated, the radioactivity in the opposite compartments was measured. The intracellular accumulation of the radioactivity was determined by lysing the cells with 2 ml 0.2% SDS in water and measuring the radioactivity in cell lysates.
(§4) To study the transcellular transport of Fluo-3, cells were incubated with 2 μM Fluo-3 in the basolateral compartments at 37° C. for 30 min.
(§5) To study the transcellular transport of rifampicin, cells were incubated with 50 μM rifampicin in the basolateral compartments at 37° C. for 30 min. To determine the concentration of rifampicin in the apical compartments its absorption at 475 nm was measured with a spectrophotometer (Ultrospec III, Amersham-Pharmacia, Freiburg, Germany). A calibration curve for the calculation of the concentrations of rifampicin was determined in the concentration range between 1 and 50 μM.

[4] = test system: human OATP8 and MRP2 (MDCK-MRP2/OATP8 cells)
Method: as §3, §4, §5

human MRP2 = human MRP2 (Homo sapiens, UniProt Q92887); assay: Inhibition of [3H]LTC4 transport into HEK-MRP2 membrane vesicles; type: biochemical; conditions: inhibitor at 50 μM
MDCKII cell lines = assay: Transcellular leakage of [14C]inulin carboxylic acid across MDCKII cell monolayers; type: cell-based, canine; conditions: 50 μM basolateral, 30 min, all four MDCKII cell lines
Method: The transcellular leakage was determined by incubating cells with 50 μM [^14C]inulin carboxylic acid in the basolateral compartments for 30 min and measuring the radioactivity in the apical compartments. For all four MDCKII cell lines used in this work the transcellular leakage was lower than 1%.

[5] = substrate: O=C1OC(c2ccc(O)c(S(=O)(=O)O)c2)(c2ccc(O)c(S(=O)(=O)O)c2)c2c(Br)c(Br)c(Br)c(Br)c21; assay: ATP-dependent transport of [3H]BSP into inside-out membrane vesicles from HEK-MRP2 cells; type: biochemical, human; conditions: other: BSP concentrations between 1 and 10 μM; pH 7.4; 37.0 °C
Method: Vesicle Transport Studies. Transport of [^3H]BSP into membrane vesicles was measured by the rapid filtration method (Keppler et al. 1998). Briefly, membrane vesicles (30 μg protein) were incubated in the presence of 4 mM ATP, 10 mM creatine phosphate, 100 μg/ml creatine kinase, and [^3H]BSP in an incubation buffer (250 mM sucrose, 10 mM Tris/HCl, pH 7.4) in a final volume of 55 μl at 37° C. Aliquots (15 μl) were taken at the indicated time points, diluted in 1 ml ice-cold incubation buffer, and immediately filtered through presoaked nitrocellulose membrane (0.2 μm pore size, Schleicher & Schüll, Dassel, Germany). Filters were rinsed twice with 5 ml of incubation buffer, dissolved in liquid scintillation fluid, and counted for radioactivity. In control experiments, ATP was replaced by an equal concentration of 5′-AMP. ATP-dependent transport was calculated by subtracting values obtained in the presence of 5′-AMP from those obtained in the presence of ATP.

Molecule: O=[N+]([O-])c1ccc(Cl)c([N+](=O)[O-])c1 [CDNB, 1-chloro-2,4-dinitrobenzene]
- effect on intracellular accumulation of [3H]BSP in MDCK-MRP2/OATP8 cells ([1]; different concentrations): enhanced
- effect on transcellular transport of [3H]BSP in MDCK-MRP2/OATP8 cells ([1]; different concentrations): markedly inhibited
- effect on intracellular accumulation of [3H]BSP in MDCK-OATP8 cells [2]: not inhibited
- effect on transcellular transport of [3H]BSP in MDCK-OATP8 cells [2]: not inhibited

Molecule: C[C@]12CC[C@@H]3c4ccc(O)cc4CC[C@H]3[C@@H]1CC[C@@H]2O[C@@H]1O[C@H](C(=O)O)[C@@H](O)[C@H](O)[C@H]1O [E217bG, 17b-glucuronosyl estradiol]
- transcellular transport (basolateral to apical) [3]: much higher velocities

Molecule: Cc1ccc(N(CC(=O)O)CC(=O)O)c(OCCOc2cc(-c3c4cc(Cl)c(=O)cc-4oc4cc(O)c(Cl)cc34)ccc2N(CC(=O)O)CC(=O)O)c1.N.N.N.N.N [Fluo-3, 1-[2-amino-5-(2,7-dichloro-6-hydroxy-3-oxo-3H-xanthen-9-yl)]-2-(2′-amino-5′-methyl-phenoxyl)-ethane-N,N,N′,N′-tetraacetic acid penta-ammonium salt]
- transcellular transport (basolateral to apical) [4]: higher transport rate

Molecule: CCCCC/C=C\C\C=C/C=C/C=C/[C@@H](SC[C@H](NC(=O)CC[C@H](N)C(=O)O)C(=O)NCC(=O)O)[C@@H](O)CCCC(=O)O [LTC4, leukotriene C4]
- transcellular transport (basolateral to apical) [4]: much higher velocities

Molecule: C[C@H](CCC(=O)NCCS(=O)(=O)O)[C@H]1CC[C@H]2[C@@H]3[C@H](O)C[C@@H]4C[C@H](O)CC[C@]4(C)[C@H]3C[C@H](O)[C@]12C [[^3H]cholyl taurine, cholyl taurine]
- transcellular transport (basolateral to apical) [3]: no difference in transport rates

Molecule: CO[C@H]1/C=C/O[C@@]2(C)Oc3c(C)c(O)c4c(O)c(c(/C=N/N5CCN(C)CC5)c(O)c4c3C2=O)NC(=O)/C(C)=C\C=C\[C@H](C)[C@H](O)[C@@H](C)[C@@H](O)[C@@H](C)[C@H](OC(C)=O)[C@@H]1C [rifampicin]
- intracellular accumulation of [3H]BSP in MDCK-MRP2/OATP8 cells [1]: about 50 % of control
- [3H]LTC4 transport into HEK-MRP2 membrane vesicles (human MRP2): 50 % of control
- transcellular transport (basolateral to apical) [3]: significantly higher transcellular transport

Molecule: CO[C@H]1/C=C/O[C@@]2(C)Oc3c(C)c([O-])c4c(O)c(cc(O)c4c3C2=O)NC(=O)/C(C)=C\C=C\[C@H](C)[C@H](O)[C@@H](C)[C@@H](O)[C@@H](C)[C@H](OC(C)=O)[C@@H]1C.[Na+] [rifamycin SV]
- intracellular accumulation of [3H]BSP in MDCK-MRP2/OATP8 cells [1]: about 50 % of control
- effect on transcellular transport of [3H]BSP in MDCK-MRP2/OATP8 cells ([1]; different concentrations): inhibited more strongly
- [3H]LTC4 transport into HEK-MRP2 membrane vesicles (human MRP2): 38 % of control

Molecule: Inulin carboxylic acid [[^14C]Inulin carboxylic acid]
- transcellular leakage (MDCKII cell lines): lower than 1%

B1: human MRP2 (Homo sapiens) (protein)
chain: MLEKFCNSTFWNSSFLDSPEADLPLCFEQTVLVWIPLGYLWLLAPWQLLHVYKSRTKRSSTTKLYLAKQVFVGFLLILAAIELALVLTEDSGQATVPAVRYTNPSLYLGTWLLVLLIQYSRQWCVQKNSWFLSLFWILSILCGTFQFQTLIRTLLQGDNSNLAYSCLFFISYGFQILILIFSAFSENNESSNNPSSIASFLSSITYSWYDSIILKGYKRPLTLEDVWEVDEEMKTKTLVSKFETHMKRELQKARRALQRRQEKSSQQNSGARLPGLNKNQSQSQDALVLEDVEKKKKKSGTKKDVPKSWLMKALFKTFYMVLLKSFLLKLVNDIFTFVSPQLLKLLISFASDRDTYLWIGYLCAILLFTAALIQSFCLQCYFQLCFKLGVKVRTAIMASVYKKALTLSNLARKEYTVGETVNLMSVDAQKLMDVTNFMHMLWSSVLQIVLSIFFLWRELGPSVLAGVGVMVLVIPINAILSTKSKTIQVKNMKNKDKRLKIMNEILSGIKILKYFAWEPSFRDQVQNLRKKELKNLLAFSQLQCVVIFVFQLTPVLVSVVTFSVYVLVDSNNILDAQKAFTSITLFNILRFPLSMLPMMISSMLQASVSTERLEKYLGGDDLDTSAIRHDCNFDKAMQFSEASFTWEHDSEATVRDVNLDIMAGQLVAVIGPVGSGKSSLISAMLGEMENVHGHITIKGTTAYVPQQSWIQNGTIKDNILFGTEFNEKRYQQVLEACALLPDLEMLPGGDLAEIGEKGINLSGGQKQRISLARATYQNLDIYLLDDPLSAVDAHVGKHIFNKVLGPNGLLKGKTRLLVTHSMHFLPQVDEIVVLGNGTIVEKGSYSALLAKKGEFAKNLKTFLRHTGPEEEATVHDGSEEEDDDYGLISSVEEIPEDAASITMRRENSFRRTLSRSSRSNGRHLKSLRNSLKTRNVNSLKEDEELVKGQKLIKKEFIETGKVKFSIYLEYLQAIGLFSIFFIILAFVMNSVAFIGSNLWLSAWTSDSKIFNSTDYPASQRDMRVGVYGALGLAQGIFVFIAHFWSAFGFVHASNILHKQLLNNILRAPMRFFDTTPTGRIVNRFAGDISTVDDTLPQSLRSWITCFLGIISTLVMICMATPVFTIIVIPLGIIYVSVQMFYVSTSRQLRRLDSVTRSPIYSHFSETVSGLPVIRAFEHQQRFLKHNEVRIDTNQKCVFSWITSNRWLAIRLELVGNLTVFFSALMMVIYRDTLSGDTVGFVLSNALNITQTLNWLVRMTSEIETNIVAVERITEYTKVENEAPWVTDKRPPPDWPSKGKIQFNNYQVRYRPELDLVLRGITCDIGSMEKIGVVGRTGAGKSSLTNCLFRILEAAGGQIIIDGVDIASIGLHDLREKLTIIPQDPILFSGSLRMNLDPFNNYSDEEIWKALELAHLKSFVASLQLGLSHEVTEAGGNLSIGQRQLLCLGRALLRKSKILVLDEATAAVDLETDNLIQTTIQNEFAHCTVITIAHRLHTIMDSDKVMVLDNGKIIECGSPEELLQIPGPFYFMAKEAGIENVNSTKF
notes: expressed in transfected cells
- Km [5]: 12 µM
